According to the supplement of paper PMC8253809:

Assays:
DIPGX29 = H3.3 K27M diffuse intrinsic pontine glioma line; assay: maximal growth inhibition (yFin) relative to DMSO / staurosporine; higher = more efficacious
Procedure, shortened: (§1)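 Patient-derived pHGG/DIPG cell lines and astrocyte controls were grown on 1% Geltrex-coated 384-well plates and exposed by pin tool to a 10-point threefold dilution series (mean top concentration 35 μM), in triplicate. Exposure was 7 days (iAstro 3 days) at 37 °C, 5% CO2. CellTiter-Glo luminescence was log2-transformed, normalised per plate to % activity between negative (solvent) and positive control wells, and pooled. EC50 and maximal response (yFin) come from the lowest-AICc three- or four-parameter log-logistic fit.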

SUDIPGXVII = diffuse intrinsic pontine glioma line; assay: as above
Procedure, shortened: as §1

HGGX39 = paediatric high-grade glioma line; assay: as above
Procedure, shortened: as §1

SUDIPGIV = diffuse intrinsic pontine glioma line; assay: as above
Procedure, shortened: as §1

DIPGX7 = H3.3 K27M diffuse intrinsic pontine glioma line; assay: as above
Procedure, shortened: as §1

DIPGX9 = diffuse intrinsic pontine glioma line; assay: as above
Procedure, shortened: as §1

SUDIPGXIX = diffuse intrinsic pontine glioma line; assay: as above
Procedure, shortened: as §1

HGGX2 = paediatric high-grade glioma line; assay: as above
Procedure, shortened: as §1

HGGX6 [1] = H3.3 G34R paediatric high-grade glioma line; assay: as above
Procedure, shortened: as §1

iAstro = astrocyte control; assay: as above
Procedure, shortened: as §1

DIPGX37 = H3.3 K27M diffuse intrinsic pontine glioma line; assay: as above
Procedure, shortened: as §1

SUDIPGVI = diffuse intrinsic pontine glioma line; assay: as above
Procedure, shortened: as §1

SUDIPGXXI = diffuse intrinsic pontine glioma line; assay: as above
Procedure, shortened: as §1

SUDIPGXIII = diffuse intrinsic pontine glioma line; assay: as above
Procedure, shortened: as §1

HABS = astrocyte control; assay: as above
Procedure, shortened: as §1

HGGX42 = H3.3 G34R paediatric high-grade glioma line; assay: as above
Procedure, shortened: as §1

HGGX6 [2] = assay: EC50 (inflection of fitted growth-inhibition curve) (log10 M)
Procedure, shortened: as §1

| Compound | maximal growth inhibition (DIPGX29) [%] | maximal growth inhibition (SUDIPGXVII) [%] | maximal growth inhibition (HGGX39) [%] | maximal growth inhibition (SUDIPGIV) [%] | maximal growth inhibition (DIPGX7) [%] | maximal growth inhibition (DIPGX9) [%] | maximal growth inhibition (SUDIPGXIX) [%] | maximal growth inhibition (HGGX2) [%] | maximal growth inhibition (HGGX6 [1]) [%] | maximal growth inhibition (iAstro) [%] | maximal growth inhibition (DIPGX37) [%] | maximal growth inhibition (SUDIPGVI) [%] | maximal growth inhibition (SUDIPGXXI) [%] | maximal growth inhibition (SUDIPGXIII) [%] | maximal growth inhibition (HABS) [%] | maximal growth inhibition (HGGX42) [%] | EC50 (log10 M) (HGGX6 [2]) |
| --- | --- | --- | --- | --- | --- | --- | --- | --- | --- | --- | --- | --- | --- | --- | --- | --- | --- |
| CC(=O)c1cc([N+](=O)[O-])c(Sc2ccc(F)cc2F)s1 | 115 | 74.3 | 24.6 | 104 | 117 | 109 | 118 | 106 | 104 | 89.1 | 112 | 94.1 | 113 | 104 | 37.7 | 108 | -4.65 |
| CC(C)(C)c1cnc(CSc2cnc(NC(=O)C3CCNCC3)s2)o1 | 84 | 95.8 | 84.8 | 103 | 113 | 104 | 116 | 57 | 83.9 | 27.2 | 86.8 | 82.8 | 110 | 92.1 | 45.9 | 87.2 | -5.8 |
| CC(C)c1c2cc(-c3ccnc(NC4CCC(NC5CCOCC5)CC4)n3)ccc2nn1C (stereo not given) | 84.4 | 89.7 | 83.2 | 90.4 | 93.3 | 89.5 | 91.6 | 75.2 | 78 | 26.6 | 81.2 | 84 | 99.9 | 89.3 | 44.3 | 82 | -6.69 |
| CC(C)c1cc(C(=O)N2Cc3ccc(CN4CCN(C)CC4)cc3C2)c(O)cc1O | 105 | 67.2 | 105 | 56.5 | 78.3 | 94.9 | 77.2 | 54.4 | 34.9 | 31.4 | 92.6 | 51.6 | 105 | 51.9 | 108 | 65 | -6.73 |
| COc1cc(F)ccc1-c1ncnc(Nc2cccc(CS(C)(=N)=O)c2)n1 (stereo not given) | 78.9 | 94.9 | 68 | 97.4 | 110 | 103 | 100 | 57.3 | 84.1 | 24.7 | 76.2 | 89.8 | 114 | 87 | 56.8 | 67 | -5.44 |
| Cc1ccc2nc(NCCN)c3ncc(C)n3c2c1 | 88.2 | 88.5 | 57.7 | 91.6 | 92.7 | 98.5 | 85.2 | 45.5 | 81.8 | 26.6 | 86.6 | 70.6 | 117 | 73.5 | 58.1 | 83.9 | -4.92 |
| O=C(c1ccccc1)c1ccc2nc(NC(=O)c3csc(C4CCN(c5ncnc6ccsc56)CC4)n3)[nH]c2c1 | 62.1 | 28.2 | 29.6 | 27.7 | 89.8 | 44.1 | 112 | 51.9 | 36 | 64.8 | 38.4 | 45.9 | 111 | 50.1 | 35.8 | 48.7 | -5.19 |
| c1ccc2c(-c3cnn4cc(-c5ccc(N6CCNCC6)cc5)cnc34)ccnc2c1 | 95.2 | 107 | 88.9 | 107 | 106 | 108 | 113 | 104 | 92.8 | 93.5 | 99 | 105 | 119 | 105 | 108 | 102 | -5.58 |
| COc1ccc(C[C@H](NC(=O)[C@H](C)NC(=O)CN2CCOCC2)C(=O)N[C@@H](Cc2ccccc2)C(=O)C2(C)CO2)cc1 (stereo in doubt) [ONX-0914] | 71.9 | 91.8 | 91.9 | 89.7 | 97.5 | 96.9 | 95 | 87.4 | 92.2 | 73.5 | 95.7 | 85.8 | 93.9 | 89.5 | 94.2 | 68 | -5.97 |
| CN(C)C/C=C/C(=O)Nc1cc2c(Nc3ccc(F)c(Cl)c3)ncnc2cc1O[C@H]1CCOC1 [AFATINIB] | 91.2 | 109 | 93.2 | 111 | 110 | 118 | 120 | 109 | 93.5 | 92.5 | 95.5 | 111 | 120 | 92.1 | 101 | 108 | -4.75 |
| O=C(Nc1c[nH]nc1-c1nc2ccc(CN3CCOCC3)cc2[nH]1)NC1CC1 [AT9283] | 108 | 102 | 91.6 | 99.7 | 110 | 109 | 112 | 96.7 | 97.8 | 27.5 | 107 | 101 | 114 | 97.8 | 94 | 104 | -5.15 |
| CC(=O)OC[C@H]1O[C@@H]([S-])[C@H](OC(C)=O)[C@@H](OC(C)=O)[C@@H]1OC(C)=O.CCP(CC)CC.[Au+] [AURANOFIN] | 93.1 | 117 | 107 | 117 | 119 | 118 | 118 | 110 | 92.2 | 106 | 90.9 | 114 | 122 | 113 | 113 | 116 | -6.35 |
| COC(=O)[C@]12CCC(C)(C)C[C@H]1[C@H]1C(=O)C=C3[C@@]4(C)C=C(C#N)C(=O)C(C)(C)[C@@H]4CC[C@@]3(C)[C@]1(C)CC2 [BARDOXOLONE METHYL] | 87.1 | 109 | 92.1 | 122 | 112 | 107 | 124 | 104 | 86.8 | 96.5 | 88.6 | 96.1 | 103 | 97 | 105 | 111 | -5.93 |
| CC(C)(C)OC(=O)Nc1ccc(-c2cc(C(=O)NCCCCCCC(=O)NO)no2)cc1 [BML-281] | 55.1 | 58.3 | 84 | 76 | 91.7 | 97.6 | 85.3 | 64 | 52.9 | 50 | 38.1 | 71.8 | 104 | 39 | 74.1 | 33.3 | -5.04 |
| CC(C)C[C@H](NC(=O)[C@H](CCc1ccccc1)NC(=O)CN1CCOCC1)C(=O)N[C@@H](Cc1ccccc1)C(=O)N[C@@H](CC(C)C)C(=O)[C@@]1(C)CO1 [CARFILZOMIB] | 96.2 | 105 | 107 | 98.6 | 92 | 115 | 116 | 97.2 | 91.3 | 87.1 | 98.9 | 95.3 | – | 105 | 108 | 77 | -6.37 |
| CC(=O)c1ccc2c(c1)c1cc(C(C)=O)ccc1n2CCNC(C)C [CBL-0137] | 94.2 | 97.5 | 104 | 96.8 | 99.2 | 106 | 98 | 83.4 | 88.7 | 23.8 | 101 | 92.3 | 113 | 96.5 | 74.4 | 91.8 | -5.37 |
| O=C(Nc1ccc(Nc2nccc(Nc3cc(C4CCCC4)[nH]n3)n2)cc1)Nc1cccc(C(F)(F)F)c1 [CD532] | 94.4 | 100 | 104 | 112 | 112 | 115 | 112 | 111 | 87.6 | 95.2 | 98.2 | 111 | 109 | 103 | 122 | 102 | -6.3 |
| NC1CCC(Nc2cc(-c3cccc(NCc4cccc(F)c4)n3)c(Cl)cn2)CC1 (stereo not given) [CDK9-IN-2] | 71.8 | 87 | 99.7 | 88.1 | 90.4 | 88.7 | 86.9 | 95.4 | 67.1 | 85.7 | 77.5 | 71.3 | 95.9 | 94.9 | 98.5 | 76.7 | -6.96 |
| C[C@@H](Oc1cc(-c2cnn(C3CCNCC3)c2)cnc1N)c1c(Cl)ccc(F)c1Cl [CRIZOTINIB] | 104 | 96.4 | 92.8 | 98.4 | 104 | 101 | 99.6 | 97.4 | 88.6 | 87.3 | 102 | 94.1 | 119 | 92.3 | 90.9 | 102 | -4.67 |
| COc1ccc(-c2nc(N3CCOCC3)c3sc(CN(C)c4ncc(C(=O)NO)cn4)cc3n2)cn1 [CUDC-907] | 106 | 107 | 112 | 113 | 97.5 | 108 | 119 | 103 | 102 | 73.6 | 119 | 98 | 122 | 109 | 129 | 105 | -6.65 |
| CN1CCCN(C(=O)c2cccc(-c3ccc(/C=C4/C(=O)Nc5ccc(Cl)cc54)o3)c2)CC1 [CX-6258] | 112 | 110 | 110 | 107 | 110 | 108 | 110 | 108 | 106 | 102 | 109 | 108 | 106 | 104 | 112 | 106 | -5.24 |
| CCCc1cc(C)[nH]c(=O)c1CNC(=O)c1cc(-c2ccnc(N3CCN(C)CC3)c2)cc2c1cnn2C(C)C [GSK343] | 120 | – | 20.4 | 74.3 | 114 | 123 | 125 | 113 | 111 | 66.2 | 122 | 112 | 126 | 87.9 | 69 | 115 | -4.6 |
| COc1ncc(-c2ccc3nccc(-c4ccnnc4)c3c2)cc1NS(=O)(=O)c1ccc(F)cc1F [OMIPALISIB] | 105 | 111 | 115 | 110 | – | 104 | 108 | 105 | 110 | 41.1 | 116 | 112 | 118 | 108 | 101 | 99.4 | -4.77 |
| CCOc1cc(C(C)(C)C)ccc1C1=N[C@@](C)(c2ccc(Cl)cc2)[C@@](C)(c2ccc(Cl)cc2)N1C(=O)N1CCN(CCCS(C)(=O)=O)CC1 [RG7112] | 93.2 | 102 | 96.2 | 55.8 | 70.5 | 109 | 113 | 101 | 86.4 | 82.6 | – | 35.2 | 115 | 61.6 | 108 | 94.2 | -4.71 |
| C=CCNC1=C2C[C@@H](C)C[C@H](OC)[C@H](O)[C@@H](C)/C=C(\C)[C@H](OC(N)=O)[C@@H](OC)/C=C\C=C(/C)C(=O)NC(=CC1=O)C2=O [TANESPIMYCIN] | 70 | 74.7 | 97.3 | 72.4 | – | 108 | 92.1 | 84.8 | 33.9 | 39.3 | 104 | 39.8 | 122 | 73.1 | 114 | 50.5 | -5.84 |
